Source: ChEMBL document CHEMBL1140874, “Ligand-based and structure-based virtual screening to identify carbonic anhydrase IX inhibitors” (Bioorg Med Chem, 2009)

Columns and labels:
Carbonic anhydrase 9 = Carbonic anhydrase 9 (Homo sapiens, UniProt Q16790)
Carbonic anhydrase 2 = Carbonic anhydrase 2 (Homo sapiens, UniProt P00918)
Carbonic anhydrase 1 = Carbonic anhydrase 1 (Homo sapiens, UniProt P00915)
Carbonic anhydrase 1, sequence (P00915 whole entry): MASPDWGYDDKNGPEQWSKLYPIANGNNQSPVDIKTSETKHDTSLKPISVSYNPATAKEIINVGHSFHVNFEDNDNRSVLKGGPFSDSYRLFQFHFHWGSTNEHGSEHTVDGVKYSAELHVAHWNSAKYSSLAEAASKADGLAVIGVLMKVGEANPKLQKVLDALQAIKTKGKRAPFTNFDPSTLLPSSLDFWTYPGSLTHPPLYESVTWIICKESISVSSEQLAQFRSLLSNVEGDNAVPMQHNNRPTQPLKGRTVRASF

N#Cc1c(N)n(-c2cccc(S(N)(=O)=O)c2)c2nc3ccccc3nc12
Ki (Carbonic anhydrase 9): 300 nM

NS(=O)(=O)c1ccc(CNS(=O)(=O)c2ccc(F)cc2)cc1
Ki (Carbonic anhydrase 2): 100 nM
Ki (Carbonic anhydrase 9): 290 nM

NS(=O)(=O)c1ccc(CCNC(=S)Nc2ccc(C(=O)O)cc2)cc1
Ki (Carbonic anhydrase 2): 380 nM

NS(=O)(=O)Oc1ccc(OS(N)(=O)=O)cc1
Ki (Carbonic anhydrase 2): 643 nM

NS(=O)(=O)c1ccc(CCNC(=O)c2sc3ccccc3c2Cl)cc1
Ki (Carbonic anhydrase 9): 1070 nM

NS(=O)(=O)c1ccc(CCNC(=O)CN2C(=O)c3ccccc3C2=O)cc1
Ki (Carbonic anhydrase 9): 290 nM

NS(=O)(=O)c1ccc(CNC(=O)NC2CC2c2ccccc2)cc1 (centres undefined)
Ki (Carbonic anhydrase 2): 2610 nM
Ki (Carbonic anhydrase 9): 1840 nM

C=CCn1c(SCC(=O)Nc2ccc(S(N)(=O)=O)cc2)nc2sc3c(c2c1=O)CCCC3
Ki (Carbonic anhydrase 2): 330 nM
Ki (Carbonic anhydrase 9): 2750 nM
Ki (Carbonic anhydrase 1): 15000 nM

CC1CCN(N(CCCC(=O)Nc2ccc(S(N)(=O)=O)cc2)N2CCC(C)CC2)CC1
Ki (Carbonic anhydrase 2): 265 nM
Ki (Carbonic anhydrase 9): 90 nM
